Laboratory results reported in article PMC7064328 (Environmental Health Perspectives, 2020).

Assays:
Pregnant CD-1 mice [1] = assay: Clinical chemistry of dam serum and urine; format: in vivo, mouse (CD-1); details: for ALB / ALP / ALT / AST / BUN / Chol / Cre / Glu / HDL / LDL / SDH / TBA / TP / Trig: dam serum; for Ucrea: dam urine
Description: Dam livers, kidneys, and placentas were trimmed and embedded by the NIEHS Mouse Embryo Phenotyping Core. Tissues collected at necropsy were fixed in 4% PFA for 72 h and paraffin embedded, and 5-μm sections were prepared and stained with hematoxylin and eosin (H&E). Pathology was evaluated and a pathology review conducted by S.A.E. Diplomate American College of Veterinary Pathologists (DACVP). Pathology reviews were conducted as an informed approach analysis [e.g., nonblinded analysis; see Sills et al. ([2019])]. Select tissue slides were scanned using the AT2 Scanner (Aperio). Images were then captured for publication using the ImageScope software; version 12.3.0.5056 (Aperio). Serum and urine obtained from dams in Block 2 were analyzed using the AU480 clinical chemistry analyzer (Beckman Coulter Inc.). Reagents and calibration standards used to measure alkaline phosphatase (ALP), alanine aminotransferase (ALT), aspartate aminotransferase (AST), blood urea nitrogen (BUN), serum creatinine, urine creatinine, glucose (Glu), total protein (TP), triglyceride (Trig), high-density lipoprotein (HDL), cholesterol (Chol), and albumin (ALB) were purchased from Beckman Coulter Inc. Reagents for sorbitol dehydrogenase (SDH), total bile acid (TBA), and micro-TP were purchased from Sekisui Diagnostics. The reagent used to measure low-density lipoprotein (LDL) was purchased form Diazyme Laboratories.

Pregnant CD-1 mice [2] = assay: Litter parameters at necropsy (implantation sites, resorptions, viable and nonviable embryos); format: in vivo, mouse (CD-1); details: for % nonviable / % resorbed: percent of implantation sites
Description: On the day of necropsy, dams received daily oral gavage between 0700 and 0800 hours and were weighed and then euthanized humanely by swift decapitation, and serum was collected. In Block 1, necropsies were completed from 0800 to 1600 hours, and in Block 2, necropsies were completed from 0800 to 1200 hours. Serum from dams euthanized in Block 1 was snap frozen for internal dosimetry analyses. Serum and urine from Block 2 dams were reserved for clinical chemistry analyses. In both blocks, the uterus was removed, and total implantation sites were counted based on gross observation of an implantation nodule along the uterine horn. Viable embryos, nonviable embryos, and sites of resorption were counted based on gross observation. Embryos were considered viable if they were properly formed, were not pale in color, and were of similar size to neighboring embryos. Embryos that were poorly formed and pale in color (without heartbeat) were considered nonviable. Sites of resorption were defined as a dark red–appearing clot-like nodule apparent on gross observation.

Structure (SMILES): N.O=C(O)C(F)(OC(F)(F)C(F)(F)C(F)(F)F)C(F)(F)F (stereo not drawn) [GenX, ammonium 2,3,3,3-tetrafluoro-2-(heptafluoropropoxy)propanoate]
- Chol higher compared with controls (Pregnant CD-1 mice [1]; E11.5, 2 mg/kg/d): 66%
- Dam serum Trig lowered vs controls (Pregnant CD-1 mice [1]; E11.5, 2 mg/kg/d): 43%
- HDL higher compared with controls (Pregnant CD-1 mice [1]; E11.5, 2 mg/kg/d): 56%
- Dam serum Trig lowered vs controls (Pregnant CD-1 mice [1]; E11.5, 10 mg/kg/d): 61%
- Dam serum Trig lower vs controls (Pregnant CD-1 mice [1]; E17.5, 10 mg/kg/d): 74%
- LDL lower vs controls (Pregnant CD-1 mice [1]; E17.5, 10 mg/kg/d): 31%
- ALB (Pregnant CD-1 mice [1]; E11.5, 2 mg/kg/d): 2.75±0.33 (4) g/dL
- ALP (Pregnant CD-1 mice [1]; E11.5, 2 mg/kg/d): 58.4±9.0 (5) U/L
- ALT (Pregnant CD-1 mice [1]; E11.5, 2 mg/kg/d): 24.2±13.7 (5) U/L
- AST (Pregnant CD-1 mice [1]; E11.5, 2 mg/kg/d): 69.0±22.0 (5) U/L
- BUN (Pregnant CD-1 mice [1]; E11.5, 2 mg/kg/d): 18.3±4.6 (4) mg/dL
- Chol (Pregnant CD-1 mice [1]; E11.5, 2 mg/kg/d): 93.4±27.8 (5) mg/dL
- Cre (Pregnant CD-1 mice [1]; E11.5, 2 mg/kg/d): 0.2±0.04 (4) mg/dL
- Glu (Pregnant CD-1 mice [1]; E11.5, 2 mg/kg/d): 249.3±25.8 (4) mg/dL
- HDL (Pregnant CD-1 mice [1]; E11.5, 2 mg/kg/d): 50.2±15.7 (5) mg/dL
- LDL (Pregnant CD-1 mice [1]; E11.5, 2 mg/kg/d): 15±4.8 (4) mg/dL
- SDH (Pregnant CD-1 mice [1]; E11.5, 2 mg/kg/d): 7.0±6.5 (4) U/L
- TBA (Pregnant CD-1 mice [1]; E11.5, 2 mg/kg/d): 1.4±0.55 (5) μM/L
- TP (Pregnant CD-1 mice [1]; E11.5, 2 mg/kg/d): 4.5±0.48 (4) g/dL
- Trig (Pregnant CD-1 mice [1]; E11.5, 2 mg/kg/d): 117.6±33.9 (5) mg/dL
- ALB (Pregnant CD-1 mice [1]; E11.5, 10 mg/kg/d): 2.8±0.17 (3) g/dL
- ALP (Pregnant CD-1 mice [1]; E11.5, 10 mg/kg/d): 83.0±25.8 (5) U/L
- ALT (Pregnant CD-1 mice [1]; E11.5, 10 mg/kg/d): 78.2±62.0 (5) U/L
- AST (Pregnant CD-1 mice [1]; E11.5, 10 mg/kg/d): 136.8±138.9 (4) U/L
- BUN (Pregnant CD-1 mice [1]; E11.5, 10 mg/kg/d): 13.7±1.5 (3) mg/dL
- Chol (Pregnant CD-1 mice [1]; E11.5, 10 mg/kg/d): 77.0±16.4 (4) mg/dL
- Cre (Pregnant CD-1 mice [1]; E11.5, 10 mg/kg/d): 0.18±0.02 (3) mg/dL
- Glu (Pregnant CD-1 mice [1]; E11.5, 10 mg/kg/d): 226.7±28.9 (3) mg/dL
- HDL (Pregnant CD-1 mice [1]; E11.5, 10 mg/kg/d): 43.3±6.1 (4) mg/dL
- LDL (Pregnant CD-1 mice [1]; E11.5, 10 mg/kg/d): 12.5±1.9 (4) mg/dL
- SDH (Pregnant CD-1 mice [1]; E11.5, 10 mg/kg/d): 8.0±3.65 (4) U/L
- TBA (Pregnant CD-1 mice [1]; E11.5, 10 mg/kg/d): 35.3±67.8 (4) μM/L
- TP (Pregnant CD-1 mice [1]; E11.5, 10 mg/kg/d): 4.37±0.29 (3) g/dL
- Trig (Pregnant CD-1 mice [1]; E11.5, 10 mg/kg/d): 80.3±14.4 (4) mg/dL
- ALB (Pregnant CD-1 mice [1]; E17.5, 2 mg/kg/d): 2.32±0.26 (5) g/dL
- ALP (Pregnant CD-1 mice [1]; E17.5, 2 mg/kg/d): 55.4±11.8 (5) U/L
- ALT (Pregnant CD-1 mice [1]; E17.5, 2 mg/kg/d): 4.4±3.9 (5) U/L
- AST (Pregnant CD-1 mice [1]; E17.5, 2 mg/kg/d): 65.6±12.1 (5) U/L
- BUN (Pregnant CD-1 mice [1]; E17.5, 2 mg/kg/d): 13.6±1.1 (5) mg/dL
- Chol (Pregnant CD-1 mice [1]; E17.5, 2 mg/kg/d): 86.6±17.1 (5) mg/dL
- Cre (Pregnant CD-1 mice [1]; E17.5, 2 mg/kg/d): 0.17±0.03 (5) mg/dL
- Glu (Pregnant CD-1 mice [1]; E17.5, 2 mg/kg/d): 123.2±13.1 (5) mg/dL
- HDL (Pregnant CD-1 mice [1]; E17.5, 2 mg/kg/d): 39.4±8.5 (5) mg/dL
- LDL (Pregnant CD-1 mice [1]; E17.5, 2 mg/kg/d): 20.0±3.9 (5) mg/dL
- SDH (Pregnant CD-1 mice [1]; E17.5, 2 mg/kg/d): 1.2±2.2 (5) U/L
- TBA (Pregnant CD-1 mice [1]; E17.5, 2 mg/kg/d): 4.8±3.0 (5) μM/L
- TP (Pregnant CD-1 mice [1]; E17.5, 2 mg/kg/d): 4.1±0.36 (5) g/dL
- Trig (Pregnant CD-1 mice [1]; E17.5, 2 mg/kg/d): 257.0±120.3 (5) mg/dL
- ALB (Pregnant CD-1 mice [1]; E17.5, 10 mg/kg/d): 2.26±0.3 (5) g/dL
- ALP (Pregnant CD-1 mice [1]; E17.5, 10 mg/kg/d): 88.8±13.0 (5) U/L
- ALT (Pregnant CD-1 mice [1]; E17.5, 10 mg/kg/d): 9.6±2.1 (5) U/L
- AST (Pregnant CD-1 mice [1]; E17.5, 10 mg/kg/d): 113.2±36.6 (5) U/L
- BUN (Pregnant CD-1 mice [1]; E17.5, 10 mg/kg/d): 15.2±1.8 (5) mg/dL
- Chol (Pregnant CD-1 mice [1]; E17.5, 10 mg/kg/d): 97.4±8.4 (5) mg/dL
- Cre (Pregnant CD-1 mice [1]; E17.5, 10 mg/kg/d): 0.15±0.06 (5) mg/dL
- Glu (Pregnant CD-1 mice [1]; E17.5, 10 mg/kg/d): 111.6±15.5 (5) mg/dL
- HDL (Pregnant CD-1 mice [1]; E17.5, 10 mg/kg/d): 50.0±8.9 (5) mg/dL
- LDL (Pregnant CD-1 mice [1]; E17.5, 10 mg/kg/d): 15.2±2.9 (5) mg/dL
- SDH (Pregnant CD-1 mice [1]; E17.5, 10 mg/kg/d): 11.4±6.8 (5) U/L
- TBA (Pregnant CD-1 mice [1]; E17.5, 10 mg/kg/d): 6.2±4.2 (5) μM/L
- TP (Pregnant CD-1 mice [1]; E17.5, 10 mg/kg/d): 3.9±0.52 (5) g/dL
- Trig (Pregnant CD-1 mice [1]; E17.5, 10 mg/kg/d): 120.6±31.7 (5) mg/dL
- Ucrea (Pregnant CD-1 mice [1]; E11.5, 2 mg/kg/d): 53.2±14.0 (3) mg/dL
- Ucrea (Pregnant CD-1 mice [1]; E11.5, 10 mg/kg/d): 82.9±33.2 (5) mg/dL
- Ucrea (Pregnant CD-1 mice [1]; E17.5, 2 mg/kg/d): 18.6±5.1 (4) mg/dL
- Ucrea (Pregnant CD-1 mice [1]; E17.5, 10 mg/kg/d): 20.2±15.7 (4) mg/dL
- No. dead embryos (Pregnant CD-1 mice [2]; E11.5, 2 mg/kg/d): 0.0 ± 0.0
- No. implantation sites (Pregnant CD-1 mice [2]; E11.5, 2 mg/kg/d): 14.7 ± 2.7
- No. resorptions (Pregnant CD-1 mice [2]; E11.5, 2 mg/kg/d): 0.7 ± 0.8
- No. viable embryos (Pregnant CD-1 mice [2]; E11.5, 2 mg/kg/d): 14.0 ± 2.9
- No. dead embryos (Pregnant CD-1 mice [2]; E11.5, 10 mg/kg/d): 0.1 ± 0.3
- No. implantation sites (Pregnant CD-1 mice [2]; E11.5, 10 mg/kg/d): 14.8 ± 3.7
- No. resorptions (Pregnant CD-1 mice [2]; E11.5, 10 mg/kg/d): 0.9 ± 1.3
- No. viable embryos (Pregnant CD-1 mice [2]; E11.5, 10 mg/kg/d): 13.8 ± 3.7
- No. dead embryos (Pregnant CD-1 mice [2]; E17.5, 2 mg/kg/d): 0.1 ± 0.3
- No. implantation sites (Pregnant CD-1 mice [2]; E17.5, 2 mg/kg/d): 13.8 ± 2.0
- No. resorptions (Pregnant CD-1 mice [2]; E17.5, 2 mg/kg/d): 0.2 ± 0.6
- No. viable embryos (Pregnant CD-1 mice [2]; E17.5, 2 mg/kg/d): 13.5 ± 2.1
- No. dead embryos (Pregnant CD-1 mice [2]; E17.5, 10 mg/kg/d): 0.0 ± 0.0
- No. implantation sites (Pregnant CD-1 mice [2]; E17.5, 10 mg/kg/d): 12.5 ± 3.1
- No. resorptions (Pregnant CD-1 mice [2]; E17.5, 10 mg/kg/d): 0.5 ± 0.7
- No. viable embryos (Pregnant CD-1 mice [2]; E17.5, 10 mg/kg/d): 12.0 ± 3.0
- % nonviable (Pregnant CD-1 mice [2]; E11.5, 2 mg/kg/d): 0.0 ± 0.0%
- % resorbed (Pregnant CD-1 mice [2]; E11.5, 2 mg/kg/d): 5.0 ± 6.2%
- % nonviable (Pregnant CD-1 mice [2]; E11.5, 10 mg/kg/d): 2.1 ± 7.2%
- % resorbed (Pregnant CD-1 mice [2]; E11.5, 10 mg/kg/d): 5.6 ± 7.7%
- % nonviable (Pregnant CD-1 mice [2]; E17.5, 2 mg/kg/d): 0.7 ± 2.4%
- % resorbed (Pregnant CD-1 mice [2]; E17.5, 2 mg/kg/d): 1.2 ± 4.1%
- % nonviable (Pregnant CD-1 mice [2]; E17.5, 10 mg/kg/d): 0.0 ± 0.0%
- % resorbed (Pregnant CD-1 mice [2]; E17.5, 10 mg/kg/d): 3.5 ± 5.3%
